Source: patent US12404265B2, “Substituted pyridine derivatives as SARM1 inhibitors” (Nura Bio, Inc., priority 2020, dated 2025)

Each molecule was assayed against T1, human SARM1(50-724) (Homo sapiens, UniProt Q6SZW1) (assay: SARM1 NADase biochemical assay (HPLC of NAD and NAM)). Details: 40 nM human SARM1(50-724), 0.3 mM NMN, 20 μM NAD, 60 minutes room temperature; dose-response from 100 μM, 1:3 dilution.
T1 construct: 40 nM human SARM1(50-724)
T1 sequence (Q6SZW1 50-724): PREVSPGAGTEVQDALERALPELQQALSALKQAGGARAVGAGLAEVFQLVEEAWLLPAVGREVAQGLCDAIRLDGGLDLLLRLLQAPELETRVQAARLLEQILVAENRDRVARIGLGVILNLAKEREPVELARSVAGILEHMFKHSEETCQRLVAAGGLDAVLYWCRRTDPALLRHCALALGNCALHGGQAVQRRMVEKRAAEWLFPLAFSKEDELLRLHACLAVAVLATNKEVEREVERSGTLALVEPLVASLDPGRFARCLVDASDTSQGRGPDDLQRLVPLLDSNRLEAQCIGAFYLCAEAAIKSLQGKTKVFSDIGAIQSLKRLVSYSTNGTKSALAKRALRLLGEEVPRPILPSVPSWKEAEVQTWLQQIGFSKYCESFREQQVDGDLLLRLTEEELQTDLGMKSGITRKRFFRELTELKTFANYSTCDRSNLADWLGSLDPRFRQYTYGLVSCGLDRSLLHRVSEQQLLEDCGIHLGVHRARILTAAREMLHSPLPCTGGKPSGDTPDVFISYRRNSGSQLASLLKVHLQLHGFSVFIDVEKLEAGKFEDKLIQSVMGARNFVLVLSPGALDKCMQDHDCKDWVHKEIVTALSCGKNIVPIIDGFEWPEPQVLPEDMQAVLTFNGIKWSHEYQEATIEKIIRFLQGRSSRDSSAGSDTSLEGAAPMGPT
In short: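 Human SARM1(50-724) at 40 nM with 0.3 mM NMN, 20 μM NAD, 1 mM TCEP in 25 mM HEPES pH 7.4, 10 mM KCl, 10 mM MgCl2, 1% DMSO; 60 min at room temperature, formic acid quench. NAD and NAM quantified by reverse-phase HPLC peak area; single point 50 μM or 1:3 series from 100 μM.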

Compound | IC50 [µM]
Cc1c(-c2ccncc2)n[nH]c1NC(=O)CCc1ccc([N+](=O)[O-])cc1 [Example 37, N-(4-Methyl-3-(pyridin-4-yl)-1H-pyrazol-5-yl)-3-(4-nitrophenyl)propanamide] | < 1
Cc1c(-c2ccncc2)n[nH]c1NC(=O)CSc1ccc(Cl)cc1 [Example 63, 2-((4-Chlorophenyl)thio)-N-(4-methyl-3-(pyridin-4-yl)-1H-pyrazol-5-yl)acetamide] | < 1
Cc1c(NC(=O)COc2ccc(Cl)cc2)cnn1-c1ccncc1 [Example 85, 2-(4-Chlorophenoxy)-N-(5-methyl-1-(pyridin-4-yl)-1H-pyrazol-4-yl)acetamide] | 1 to 10
Cc1c(-c2ccncc2)n[nH]c1NC(=O)CCc1cnc(Cl)nc1 [Example 61, 3-(2-Chloropyrimidin-5-yl)-N-(4-methyl-3-(pyridin-4-yl)-1H-pyrazol-5-yl)propanamide] | < 1
COc1cnccc1-c1cc(NC(=O)CCc2ccc(Cl)cc2)[nH]n1 [Example 169, 3-(4-Chlorophenyl)-N-(3-(3-methoxypyridin-4-yl)-1H-pyrazol-5-yl)propanamide] | 1 to 10
Cc1c(-c2ccncc2)n[nH]c1NC(=O)CCc1ccc(Cl)cc1 [Example 19, 3-(4-Chlorophenyl)-N-(4-methyl-3-(pyridin-4-yl)-1H-pyrazol-5-yl)propanamide] | < 1
Cc1c(-c2ccncc2)n[nH]c1NC(=O)CCc1cc(Cl)cs1 [Example 73] | < 1
Cc1cc(Cl)ccc1CCC(=O)Nc1[nH]nc(-c2ccncc2)c1C [Example 42, 3-(4-Chloro-2-methylphenyl)-N-(4-methyl-3-(pyridin-4-yl)-1H-pyrazol-5-yl)propanamide] | < 1
Cc1c(-c2ccncc2)n[nH]c1NC(=O)CCc1ccc(F)c(F)c1F [Example 51, N-(4-Methyl-3-(pyridin-4-yl)-1H-pyrazol-5-yl)-3-(2,3,4-trifluorophenyl)propanamide] | < 1
Cc1ccc(CCC(=O)Nc2[nH]nc(-c3ccncc3)c2C)cc1 [Example 24, N-(4-Methyl-3-(pyridin-4-yl)-1H-pyrazol-5-yl)-3-(p-tolyl)propanamide] | < 1
Cc1c(-c2ccncc2)n[nH]c1NC(=O)CCc1ccc(F)c(F)c1 [Example 44, 3-(3,4-Difluorophenyl)-N-(4-methyl-3-(pyridin-4-yl)-1H-pyrazol-5-yl)propanamide] | < 1
Cc1c(-c2ccncc2)n[nH]c1NC(=O)C#Cc1ccc(Cl)cc1 [Example 72, 3-(4-Chlorophenyl)-N-(4-methyl-3-(pyridin-4-yl)-1H-pyrazol-5-yl)propiolamide] | 1 to 10
Cc1cc(CCC(=O)Nc2[nH]nc(-c3ccncc3)c2C)ccc1Cl [Example 43, 3-(4-Chloro-3-methylphenyl)-N-(4-methyl-3-(pyridin-4-yl)-1H-pyrazol-5-yl)propanamide] | < 1
O=C(CCc1cccc(Cl)c1)Nc1cc(-c2ccncc2)n[nH]1 [Example 100, 3-(3-Chlorophenyl)-N-(3-(pyridin-4-yl)-1H-pyrazol-5-yl)propanamide] | 1 to 10
Cc1c(NC(=O)CCc2cc(F)c(F)c(F)c2)cnn1-c1ccncc1 [Example 84, N-(5-Methyl-1-(pyridin-4-yl)-1H-pyrazol-4-yl)-3-(3,4,5-trifluorophenyl)propanamide] | < 1
Cc1c(-c2ccncc2)n[nH]c1NC(=O)NCc1ccc(C#N)cc1 [Example 141, 1-[(4-Cyanophenyl)methyl]-3-[4-methyl-3-(pyridin-4-yl)-1H-pyrazol-5-yl]urea] | < 1
Cc1c(-c2ccncc2)n[nH]c1N(C(=O)CCc1cc(F)c(F)c(F)c1)C(=O)CCc1cc(F)c(F)c(F)c1 [Example 10, N-(4-Methyl-3-(pyridin-4-yl)-1H-pyrazol-5-yl)-3-(3,4,5-trifluorophenyl)-N-(3-(3,4,5-trifluorophenyl)propanoyl)propanamide] | < 1

Compound | IC50 [µM]
CN(C(=O)CCc1ccc(Cl)cc1)c1cnn(-c2ccncc2)c1 [Example 134, 3-(4-Chlorophenyl)-N-methyl-N-(1-(pyridin-4-yl)-1H-pyrazol-4-yl)propanamide] | 1 to 10
Cc1c(-c2ccncc2)n[nH]c1NC(=O)CCc1ccc(Cl)s1 [Example 74] | < 1
Cc1c(-c2ccncc2)n[nH]c1NC(=O)CC1CCCc2cc(Cl)ccc21 (stereo not drawn) [Example 68, 2-(6-Chloro-1,2,3,4-tetrahydronaphthalen-1-yl)-N-[4-methyl-3-(pyridin-4-yl)-1H-pyrazol-5-yl]acetamide] | 1 to 10
Cc1c(-c2ccncc2)n[nH]c1NC(=O)CCc1cc(F)c(Cl)cc1F [Example 40, 3-(4-Chloro-2,5-difluorophenyl)-N-(4-methyl-3-(pyridin-4-yl)-1H-pyrazol-5-yl)propanamide] | < 1
Cc1c(-c2ccncc2)n[nH]c1NC(=O)C1CC1c1ccc(Cl)cc1 (stereo not drawn) [Example 135, 2-(4-Chlorophenyl)-N-(4-methyl-3-(pyridin-4-yl)-1H-pyrazol-5-yl)cyclopropane-1-carboxamide] | 1 to 10
Cc1c(NC(=O)CCc2ccc(Cl)cc2)cnn1-c1ccncc1 [Example 86] | < 1
O=C(CCc1ccc(Cl)cc1)Nc1cnn(-c2ccncc2)c1 [Example 89, 3-(4-Chlorophenyl)-N-(1-(pyridin-4-yl)-1H-pyrazol-4-yl)propanamide] | 1 to 10
O=C(CCc1cc(F)c(Cl)c(F)c1)Nc1[nH]nc(-c2ccncc2)c1Cl [Example 97, 3-(4-Chloro-3,5-difluorophenyl)-N-(4-chloro-3-(pyridin-4-yl)-1H-pyrazol-5-yl)propanamide] | < 1
Cc1c(NC(=O)CCc2cc(F)c(Cl)c(F)c2)cnn1-c1ccncc1 [Example 83, 3-(4-Chloro-3,5-difluorophenyl)-N-(5-methyl-1-(pyridin-4-yl)-1H-pyrazol-4-yl)propanamide] | < 1
Cc1c(-c2ccncc2)n[nH]c1NC(=O)N[C@H](C)c1ccc(Cl)cc1 [Example 148, (R)-1-(1-(4-Chlorophenyl)ethyl)-3-(4-methyl-3-(pyridin-4-yl)-1H-pyrazol-5-yl)urea] | 1 to 10
O=C(CCc1ccc(Cl)cc1)Nc1[nH]nc(-c2ccncc2)c1C(F)(F)F [Example 125, 3-(4-Chlorophenyl)-N-[3-(pyridin-4-yl)-4-(trifluoromethyl)-1H-pyrazol-5-yl]propanamide] | < 1
O=C(CCc1ccc(Br)cc1)Nc1cnn(-c2ccncc2)c1 [Example 114, 3-(4-Bromophenyl)-N-(1-(pyridin-4-yl)-1H-pyrazol-4-yl)propanamide] | < 1
CCc1c(-c2ccncc2)n[nH]c1NC(=O)CCc1cc(F)c(C#N)c(F)c1 [Example 15, 3-(4-Cyano-3,5-difluorophenyl)-N-(4-ethyl-3-(pyridin-4-yl)-1H-pyrazol-5-yl)propanamide] | < 1
Cc1c(-c2ccncc2)n[nH]c1NC(=O)CCc1cc(F)c(F)c(F)c1 [Example 50, N-(4-Methyl-3-(pyridin-4-yl)-1H-pyrazol-5-yl)-3-(3,4,5-trifluorophenyl)propanamide] | < 1
Cc1c(-c2ccncc2)n[nH]c1NC(=O)CCc1ccc(CF)cc1 [Example 56, 3-(4-(Fluoromethyl)phenyl)-N-(4-methyl-3-(pyridin-4-yl)-1H-pyrazol-5-yl)propanamide] | < 1
O=C(CCc1ccc(Cl)cc1)Nc1[nH]nc(-c2ccncc2)c1Br [Example 147, N-(4-Bromo-3-(pyridin-4-yl)-1H-pyrazol-5-yl)-3(4-chlorophenyl)propanamide] | < 1
